Laboratory results as given in patent US6869964B2, “Heterocyclicsulfonamide hepatitis C virus inhibitors” (Bristol-Myers Squibb Company, priority 2002, dated 2005).

How the values were obtained:
[1] = biological target: T1, HCV NS3/4A protease complex (H77C strain) (Hepatitis C virus genotype 1a, UniProt P27958, C1454S); experiment: Recombinant HCV NS3/4A protease complex FRET peptide assay, H77C strain; assay type: biochemical, HCV genotype 1a
T1 construct: HCV NS3/4A protease complex (amino acids 1027 to 1711); inferred from pET21b vector and Ni-NTA purification; made in house; host or cells: Escherichia coli BL21 (DE3), pET21b
T1 sequence (P27958 1027-1657 C1454S): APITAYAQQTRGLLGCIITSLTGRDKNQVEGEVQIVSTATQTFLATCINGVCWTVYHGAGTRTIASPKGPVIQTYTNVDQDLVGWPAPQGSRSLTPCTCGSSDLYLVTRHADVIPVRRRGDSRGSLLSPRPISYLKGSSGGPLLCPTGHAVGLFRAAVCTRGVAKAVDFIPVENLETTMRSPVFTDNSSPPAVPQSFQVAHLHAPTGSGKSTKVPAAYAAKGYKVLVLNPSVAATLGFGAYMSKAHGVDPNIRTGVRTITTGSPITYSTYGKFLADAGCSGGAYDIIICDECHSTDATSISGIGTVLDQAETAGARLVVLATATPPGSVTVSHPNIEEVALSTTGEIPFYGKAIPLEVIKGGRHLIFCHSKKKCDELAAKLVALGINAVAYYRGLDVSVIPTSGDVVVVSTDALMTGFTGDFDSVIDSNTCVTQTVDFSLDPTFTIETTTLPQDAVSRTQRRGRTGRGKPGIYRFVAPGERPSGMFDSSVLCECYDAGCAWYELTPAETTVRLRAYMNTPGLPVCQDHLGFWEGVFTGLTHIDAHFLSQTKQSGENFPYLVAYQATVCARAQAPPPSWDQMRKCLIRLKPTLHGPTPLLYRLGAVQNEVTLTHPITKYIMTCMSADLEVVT
T1 sequence (P27958 1658-1711 partner, looked up, stated change not applied): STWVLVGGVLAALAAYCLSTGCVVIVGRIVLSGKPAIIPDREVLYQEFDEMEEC
Source text: Recombinant HCV NS3/4A Protease Complex FRET Peptide Assay
The purpose of this in vitro assay was to measure the inhibition of HCV NS3 protease complexes, derived from the BMS, H77C or J4l6S strains, as described below, by compounds of the present invention. This assay provides an indication of how effective compounds of the present invention would be in inhibiting HCV proteolytic activity.
Serum from an HCV-infected patient was obtained from Dr. T. Wright, San Francisco Hospital. An engineered full-length cDNA template of the HCV genome (BMS strain) was constructed from DNA fragments obtained by reverse transcription-PCR (RT-PCR) of serum RNA and using primers selected on the basis of homology between other genotype la strains. From the determination of the entire genome sequence, a genotype la was assigned to the HCV isolate according to the classification of Simmonds et al. (See P Simmonds, K A Rose, S Graham, S W Chan, F McOmish, B C Dow, E A Follett, P L Yap and H Marsden, J. Clin. Microbiol., 31(6), 1493-1503 (1993)). […]

[2] = biological target: T2, porcine pancreatic elastase (PPE) (Sus scrofa, UniProt P00772); experiment: Specificity assay, porcine pancreatic elastase; assay type: biochemical; settings: 2 hr enzyme-inhibitor pre-incubation
T2 construct: porcine pancreatic elastase (PPE); from tissue; host or cells: porcine pancreas (from the enzyme's name only)
T2 sequence (P00772 27-266): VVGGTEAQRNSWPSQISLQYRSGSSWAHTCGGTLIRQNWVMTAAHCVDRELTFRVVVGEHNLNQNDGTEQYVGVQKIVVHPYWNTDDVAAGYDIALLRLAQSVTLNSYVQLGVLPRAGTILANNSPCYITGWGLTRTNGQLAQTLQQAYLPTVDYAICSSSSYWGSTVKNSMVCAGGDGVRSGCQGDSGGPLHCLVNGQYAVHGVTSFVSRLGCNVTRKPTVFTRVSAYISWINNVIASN
Protocol: The specificities of compounds of the present invention were determined against a variety of serine proteases: human sputum elastase (HS), porcine pancreatic elastase (PPE) and human pancreatic chymotrypsin and one cysteine protease: human liver cathepsin B. In all cases a 96-well plate format protocol using colorimetric p-nitroaniline (pNA) substrate specific for each enzyme was used as described previously (CT 2633 application) with some modifications to the serine protease assays.
Each assay included a 2 hr enzyme-inhibitor pre-incubation at RT followed by addition of substrate and hydrolysis to ˜30% conversion as measured on a Spectramax Pro microplate reader. Compound concentrations varied from 100 to 0.4 μM depending on their potency.
The final conditions and protocol for the serine protease assays were: • 50 mM Tris(hydroxymethyl)aminomethane hydrochloride (Tris-HCl) pH8, • 0.5M Sodium Sulfate (Na2SO4), 50 mM NaCl, 0.1 mM EDTA, 3% DMSO, • 0.01% Tween-20 with: 133 μM succ-AAA-pNA and 20 nM HS or 8 nM PPE; 100 μM succ-AAPF-pNA and 250 pM Chymotrypsin.
The percentage of inhibition was calculated using the formula: [1−((UVinh−UVblank)/(UVctl−UVblank))]×100
A non-linear curve fit was applied to the inhibition-concentration data, and the 50% effective concentration (IC50) was calculated by the use of Excel Xl-fit software.

With `C=CC1C[C@]1(NC(=O)[C@@H]1C[C@@H](Oc2cc(-c3ccccc3)nc3cc(OC)ccc23)CN1C(=O)[C@@H](NC(=O)OC(C)(C)C)C(C)(C)C)C(=O)NS(=O)(=O)c1cccs1` (stereo in doubt) [Compound 1, (1-{4-(7-Methoxy-2-phenylquinolin-4-yloxy)-2-[1-(thiophene-2-sulfonylaminocarbonyl)-2-vinyl-cyclopropylcarbamoyl]-pyrrolidine-1-carbonyl}-2,2-dimethylpropyl)carbamic acid tert-butyl ester] the IC50 [1] was 2.2 nM and the IC50 [2] was greater than 50000 nM.
